Measurements from patent US11286263B2, “Macrocyclic fluorine substituted indole derivatives” (The Broad Institute, Inc., priority 2017, dated 2022).
Where a name gives a salt, the structure may show the parent alone. Read-outs that look alike come from different tables or passages of the source.

Legend:
[1] = tested on: SK-BR-3; assay: Antiproliferation assay SK-BR-3 (Assay 7); assay type: cell-based; conditions: SK-BR-3 cells, CellTiter-Glo, single determinations, read-out: IC50 Antiproli SK-BR-3
Protocol: (§1) Assessment of the Anti-Proliferative Effect of Compounds in Different Cell Lines
(§2) The impact of compounds on the proliferation of different cell lines was assessed using the CellTiter-Glo® Luminescent Cell Viability reagent from Promega (G7573).
(§3) In parallel, cells were plated in a reference (day 0) plate for time zero determination.
(§4) Rim wells were excluded. The cells were incubated for 72 h hours in a humidified incubator at 37° C. The day 0 plate was measured by adding 30 μL/well of CTG solution (CellTiter-Glo® Luminescent Cell Viability reagent, Promega G7573) to time zero wells in the reference plate followed by a 10 minutes incubation and luminescence reading at 0.1 ms. using the PHERAstar FS microplate reader (BMG Labtech).
(§5) After 72 h incubation, the treated plates were measured in the same way as the day 0 plate mentioned above.

[2] = tested on: NCI-H23; assay: Antiproliferation assay NCI-H23 (Assay 7); assay type: cell-based; conditions: NCI-H23 cells, CellTiter-Glo, single determinations, read-out: IC50 Antiproli NCI-H23
Protocol: as §1, §2, §3, §4, §5

[3] = tested on: A2058; assay: Antiproliferation assay A2058 (Assay 7); assay type: cell-based; conditions: Homo sapiens; A2058 cells, 72 h, CellTiter-Glo; single determinations; read-out: IC50 Antiproli A2058
Protocol: as §1, §2, §3, §4, §5

[4] = tested on: BxPC-3; assay: Antiproliferation assay BxPC-3 (Assay 7); assay type: cell-based; conditions: Homo sapiens; BxPC-3 cells, 72 h, CellTiter-Glo; single determinations; read-out: IC50 Antiproli BxPC-3
Protocol: as §1, §2, §3, §4, §5

[5] = tested on: SUDHL5
Protocol: In principle, compounds that induce apoptosis will concomitantly induce cell cytotoxicity. Therefore, cytotoxicity assays were run in parallel in SUDHL5 and SUDHL10 cells.
The different cell lines were plated in culture medium (RPMI 1640 [GIBCO #22400-089] supplemented with 10% Fetal Bovine Serum) at a density of 3,300 cells in 30 μl/well in a sterile, solid black, flat bottom, polystyrene, TC-treated 384-well microplate (Corning #3571) using Multidrop Combi Reagent Dispenser. As a control, medium without cells was also added to the plate. Cells were incubated in a humidified incubator at 37° C. overnight. On the next day, the cells were treated with compounds (stock solution, 10 mM in DMSO) using the HP D300 Digital Dispenser in a concentration range of 3.3×10e-5 M (33 μM) to 5×10e-9 M (5 nM) in a single-dot curve with at least 16 dilutions and a DMSO concentration of 0.33%. Rim wells were excluded. The cells were incubated for 5 h hours in a humidified incubator at 37° C. After this incubation, 30 μl of CellTiter-Glo® Luminescent Cell Viability reagent (Promega, G7573) was added to each well using the Multidrop Combi Reagent Dispenser, followed by 15 min incubation on a shaker at room temperature. Finally, luminescence was read at 0.1 ms, with a gain of 3000 using the PHERAstar FS microplate reader (BMG Labtech).
The Bella DRC Master Sheet was used to calculate IC50s, with fixed CI=0 and C0=1.

[6] = tested on: SUDHL10

IC50 ([1]; Homo sapiens, SK-BR-3, 72 h)	IC50 ([2]; Homo sapiens, NCI-H23, 72 h)	Molecule	IC50 [3]	further results
7.07 µM	7.56 µM	Cc1c2c(nn1C)COCCCCn1c(C(=O)O)c(CCCOc3cccc4ccccc34)c3ccc(F)c-2c31 (racemic) [Example 2, (rac)-4-fluoro-2,3-dimethyl-7-[3-(naphthalen-1-yloxy)propyl]-2,10,11,12,13,15-hexahydro-pyrazolo[4′,3′:9,10][1,6]oxazacycloundecino[8,7,6-hi]indole-8-carboxylic acid]	> 33 µM	IC50 ([1]; 72 h, listed as 02): 6.85 µM; IC50 ([2]; 72 h, listed as 02): 9.56 µM
9.5 µM	6.94 µM	Cc1c2c(nn1C)COCCCCn1c(C(=O)O)c(CCCOc3cccc4ccccc34)c3ccc(F)c-2c31 (single isomer, unassigned; enantiomer 1) [Example 3, 4-fluoro-2,3-dimethyl-7-[3-(naphthalen-1-yloxy)propyl]-2,10,11,12,13,15-hexahydropyrazolo-[4′,3′:9,10][1,6]oxazacycloundecino[8,7,6-hi]indole-8-carboxylic acid-N-ethylethanamine salt (enantiomer 1)]	> 33 µM	–
–	–	CCc1c2c(nn1C)COCCCCn1c(C(=O)O)c(CCCOc3cccc4cc(F)ccc34)c3ccc(F)c-2c31 (single isomer, unassigned; enantiomer 1) [Example 22, 3-ethyl-4-fluoro-7-{3-[(6-fluoronaphthalen-1-yl)oxy]propyl}-2-methyl-2,10,11,12,13,15-hexahydropyrazolo[4′,3′:9,10][1,6]oxazacycloundecino[8,7,6-hi]indole-8-carboxylic acid-N-ethylethanamine salt (enantiomer 1)]	–	IC50 [4]: 23.5 µM
–	–	(rac)-1-(3-((2,3-dihydro-1H-inden-4-yl)oxy)propyl)-12-ethyl-13-fluoro-11-methyl-4,5,6,7,9,11-hexahydropyrazolo[4′,3′:9,10][1]oxa[6]azacycloundecino[8,7,6-hi]indole-2-carboxylic acid [Example 30]	–	IC50 [5]: 1.1 µM; IC50 [6]: 1.3 µM
